Measured values: patent publication US12521362B2, “Agent for treating, preventing, or improving psychiatric and nervous system disorders or symptoms” (TOKYO UNIVERSITY OF SCIENCE FOUNDATION, priority 2019, dated 2026)

Legend:
[1] = system: anxiety-like behaviors in mice; assay: Elevated plus maze (EPM) test of exploration behavior
From the text: An elevated plus maze (EPM) apparatus (FIG. 1) was used to assess anxiety-like behaviors in mice administered with any of the test drugs. The EPM apparatus is a plus-shaped maze apparatus with open and closed arms and is used for assessment of anxiety-like behaviors of animals. Animals administered with a benzodiazepine (BZD) anxiolytic drug are known to increase the ratio of time spent in the open arm and the ratio of open arm entries. The EPM test is the most representative test available as a system for evaluating an anxiolytic drug.
Mice were acclimated to the testing laboratory for 60 minutes, and a prepared test drug was then administered to each mouse at a dose of 0.25 mL/20 g. After the elapse of a predetermined period of time from the administration of the drug, the EPM apparatus was used to quantify exploration behavior of the mouse for 5 minutes. The equations below were used to evaluate the effects of each test drug on exploration behavior in mice. Statistical analysis was performed with Dunnett's multiple comparison test, and a significant difference was considered at P<0.05. Time spent in open arm (%)−Time spent in open arm (sec)/{Time spent in open arm (sec)+Time spent in closed arm (sec)}×100 Open arm entry (%)−Open arm entries (times)/{Open arm entries (times)+Closed arm entries (times)}×100 Total arm entries (times)=Open arm entries (times)+Closed arm entries (times) 2.
Disulfiram was administered intraperitoneally to mice (n=8 per group) at a dose of 20, 40, or 80 mg/kg, and the mice were tested 30 minutes after the administration for their exploration behavior by using the EPM apparatus. As a positive control experiment, diazepam, a BZD anxiolytic drug, was administered subcutaneously to mice at a dose of 1.5 mg/kg (equivalent to the dose used clinically for humans), and the mice were similarly tested for their exploration behavior by using the EPM apparatus. A solution of 2% Tween 80, 10% DMSO, and 88% corn oil was administered intraperitoneally to mice in the solvent control group.
Disulfiram was administered to mice (n=8 per group) at a dose of 40 mg/kg, and the mice were tested 15, 30, 60, or 120 minutes after the administration for their exploration behavior by using the EPM apparatus.
Cyanamide was investigated for the presence of an anxiolytic-like effect. Cyanamide or disulfiram was administered to mice (n=6 per group) at a dose of 80 or 40 mg/kg, respectively, and the mice were tested 30 minutes after the administration for their exploration behavior by using the EPM apparatus.
The iron(III) complex of diethyldithiocarbamate (DDC) (Fe(DDC)3) as a disulfiram (DSF)-related compound was investigated for the presence of an anxiolytic-like effect. Each drug was administered intraperitoneally to mice in the Fe(DDC)3 dose group (n=5) and the DDC dose group (n=4) at a dose of 40 mg/kg. A solution of 2% Tween 80, 10% DMSO, and 88% corn oil was administered intraperitoneally to mice in the solvent control group (n=9). Thirty minutes after the administration, the elevated plus maze test was performed for 5 minutes.
The copper complex of DDC (Cu(DDC)2) as a DSF-related compound was investigated for the presence of an anxiolytic-like effect. Cu(DDC)2 was administered orally to mice (n=4) at a dose of 40 mg/kg. A solution of 2% Tween 80, 10% DMSO, and 88% corn oil was administered orally to mice in the solvent control group (n=4). Sixty minutes after the administration, the elevated plus maze test was performed for 5 minutes.

[2] = system: object recognition function in mice; assay: Novel object location task (NOL), memory retrieval task; format: in vivo, Male C57BL/6J mice; conditions: DSF diet (0.8 mg DSF per 1 g diet) for 3 weeks; p<0.05 (FIG. 8)
Procedure: To 1 g of an MF diet, 0.8 mg of DSF and 50 mg of sucrose or only 50 mg of sucrose (without DSF) were added to prepare a DSF diet or a control diet, respectively, as a solid diet. The novel object location task (NOL) was conducted to assess object recognition function in mice administered with any of the test drugs. The NOL is a test used to evaluate the ability to remember the location of an object (Dix, S. L. & Aggleton, J. P., Behav Brain Res: 1999 March; 99(2): 191-200). Mice were placed in a 33 cm square white box (open field: OF) and allowed to explore the white box freely for 10 minutes every day in the period of 3 days (acclimation). On Day 4, two objects with the same shape were placed in the OF apparatus, and the mice were allowed to learn the locations of the objects (FIG. 8; learning). On Day 5, one of the objects was relocated to a location that was different from the original location during the learning tasks, and the mice were allowed to explore the objects for 5 minutes, and the length of time spent exploring the objects was measured (FIG. 8; memory retrieval task). […] In the NOL memory retrieval task, the length of time spent exploring each object was measured to evaluate the effect of each test drug on the cognitive ability of the mice.

[3] = system: wild-type APP-transfected cells; conditions: in vitro, cultured cells; data of Patent Document 3; cited from earlier work
[4] = system: hyperemotional response and hyperactivity in mice; assay: Hyperemotional response and hyperactivity after chronic administration; format: in vivo, ICR mice; conditions: DSF diet freely for 3 months
Procedure: To 1 g of an MF diet, 0.8 mg of DSF and 50 mg of sucrose or only 50 mg of sucrose (without DSF) were added to prepare a DSF diet or a control diet, respectively, as a solid diet. ICR mice were allowed to eat the DSF diet (200 mg/day) freely for 3 months to assess hyperemotional response and hyperactivity. Hyperemotional response was evaluated in those mice according to the method of Kelly et al., (Kelly, J. P. et al., Pharmacol. Ther. Vol. 74, No. 3, pp. 299-316, 1997) by individually scoring (A) the response to an object placed in front of the nose, (B) the response to air blown thereon, or (C) the resistance to handling, based on the following criteria of emotional responses: • 0: no response; • 1: interest in the object, or only a slight movement, or easy to handle; • 2: protective or evasive actions against the object, or expression of surprise, or nervous but still easy to handle; • 3: aggressive actions such as biting, or clear expression of surprise, or nervous and difficult to handle; • 4: highly aggressive actions, or expression of surprise with jumping, or quite difficult to handle. The hyperactivity of each mouse was measured over a period of 30 seconds by counting the number of times the mouse crossed the lines that divided the floor of a cage to four areas.

[5] = system: spatial learning ability in mice; assay: Morris water maze task (WM); format: in vivo, Male C57BL/6J mice; conditions: DSF diet for 4 weeks
Procedure: To 1 g of an MF diet, 0.8 mg of DSF and 50 mg of sucrose or only 50 mg of sucrose (without DSF) were added to prepare a DSF diet or a control diet, respectively, as a solid diet. Next, the Morris water maze task (WM) was conducted to assess spatial learning ability in mice administered with any of the test drugs. The WM is widely used for assessing spatial learning and memory in mice (Morris, R. G. M., Learning and Motivation: 1981, 12, 239-260). A WM apparatus was a circular pool of 120 cm in diameter, filled with white-colored water and equipped with a submerged platform (PF) on which a mouse was allowed to stand and rest. Mice were allowed to swim from a randomly selected starting point in the pool, and the distance spent swimming before reaching the hidden platform was measured (FIG. 9A). […] Thus, the spatial learning ability can be assessed based on the distance traveled to find the platform. […] The effect of a test drug on spatial memory formation was evaluated from the ratio of time spent exploring the area at each probe trial after the platform was removed from the original location. […] At the WM learning trials, the distance spent swimming before reaching the platform was measured every day to evaluate the effect of each test drug on the spatial learning of the mice. Moreover, the effect of each test drug on the spatial memory formation in the mice was evaluated at the probe trials.

[6] = system: mouse models of depression (SDS models); assay: Social interaction (SI) test after social defeat stress (SDS models); format: in vivo, C57BL/6J mice; conditions: DSF diet freely for 3 months, then SDS for 10 days; control group SI time significantly decreased (FIG. 11)
Procedure: To 1 g of an MF diet, 0.8 mg of DSF and 50 mg of sucrose or only 50 mg of sucrose (without DSF) were added to prepare a DSF diet or a control diet, respectively, as a solid diet. C57BL/6J mice were allowed to eat the DSF diet (200 mg/day) freely for 3 months and then exposed to social defeat stress (SDS) for 10 days to create mouse models of depression (SDS models) (Golden S. A. et al., Nat Protoc. Vol. 6, No. 8, pp. 1183-1191, 2011). The SDS models were created by placing a single C57BL/6J mouse in a home cage where a male ICR mouse had been housed for a long period of time and exposing the mouse to physical aggression by the ICR mouse. In this study, the stress exposure was applied for 10 minutes a day in a period of consecutive 10 days. Depressive-like symptoms were evaluated by the social interaction (SI) test (Golden S. A. et al., 2011, supra). An apparatus composed of an open field apparatus (45 cm×45 cm×30 cm) and a mesh cage (8 cm×6 cm×30 cm) placed on one side of the open field apparatus was used to perform the SI test, in which the time (SI time) spent by the C57BL/6J mouse approaching and making contact with the ICR mouse (Target) in the mesh cage during the measurement time (2.5 minutes) was compared with that in the absence of the ICR mouse (Non-target).

[7] = intraperitoneal 40 mg/kg, 30 minutes, two mice with no sedative effect (FIG. 6)
[8] = 80 mg/kg, 30 minutes after administration (FIG. 5)
[9] = oral 40 mg/kg, sixty minutes after administration (FIG. 7)
[10] = 40 mg/kg, time course 15-120 minutes
[11] = intraperitoneal 20, 40 or 80 mg/kg, 30 minutes after administration, dose-dependent, vs solvent control (FIG. 2)
[12] = subcutaneous 1.5 mg/kg, positive control (FIG. 3)

CCN(CC)C(=S)[S-].CCN(CC)C(=S)[S-].CCN(CC)C(=S)[S-].[Fe+3] [Fe(DDC)3, diethyldithiocarbamic acid ferric salt]
anxiolytic-like effect ([1]; intraperitoneal 40 mg/kg, 30 minutes (FIG. 6)): confirmed to have an anxiolytic-like effect
sedative effect ([1]; intraperitoneal 40 mg/kg, 30 minutes, observed in three mice of n=5, no exploration): strong sedative effect
ratio of open arm entries [1, 7]: significantly increased
ratio of time spent in the open arm [1, 7]: significantly increased

N#CN [Cyanamide, cyanamide (H2 N—CN)]
anxiolytic-like effect [1, 8]: no anxiolytic-like effect
ratio of open arm entries [1, 8]: no significant effects
ratio of time spent in the open arm [1, 8]: no significant effects

copper diethyldithiocarbamate [Cu(DDC)2]
anxiolytic-like effect [1, 9]: confirmed to have an anxiolytic-like effect
ratio of time spent in the open arm [1, 9]: significantly increased
ratio of open arm entries ([1]; oral 40 mg/kg, sixty minutes after administration, not significantly different (FIG. 7)): clear tendency to increase

CCN(CC)C(=S)SSC(=S)N(CC)CC [disulfiram, tetraethylthiuram disulfide]
ratio of time spent in the open arm ([1]; 40 mg/kg, tested 15, 30, 60 or 120 minutes after administration, increased from 15 minutes (FIG. 4)): significantly increased
effect observed till (time after the administration) [1, 10]: 60 min
time of peak anxiolytic-like effect [1, 10]: 30 min
anxiolytic-like effect ([1]; disulfiram 40 mg/kg to 80 mg/kg i.p. compared with diazepam 1.5 mg/kg s.c.): comparable to that of diazepam
ratio of open arm entries [1, 11]: significantly increased
ratio of time spent in the open arm [1, 11]: significantly increased
time spent exploring the relocated object vs the object remaining at the original location [2]: significantly longer
secretion of sAPPα [3]: promote secretion of sAPPα
hyperemotional response (score) ([4]; vs control diet group (FIG. 10A)): significant decreases
hyperactivity (line crossings in 30 seconds) ([4]; vs control diet group (FIG. 10B)): significant decreases
distance traveled to find the platform ([5]; Days 4 and 6, p<0.05 vs control diet (FIG. 9A)): shorter
time spent for exploring the platform area at the probe trial ([5]; probe trial on Day 5, p<0.05 vs control diet (FIG. 9B)): significantly longer
SI time in the presence of the Target vs Non-target [6]: any change in SI time was not observed

CN1C(=O)CN=C(c2ccccc2)c2cc(Cl)ccc21 [diazepam, Diazepam]
ratio of open arm entries [1, 12]: increased
ratio of time spent in the open arm [1, 12]: increased
